According to patent US8017614B2, “Arylindenopyrimidines compound and use as an adenosine A2a receptor antagonists” (priority 2007, dated 2011):

Key:
A1 = biological target: T1, A1 (Homo sapiens, UniProt P30542); assay: A1 cell-based functional assay
T1 sequence (P30542 1-326): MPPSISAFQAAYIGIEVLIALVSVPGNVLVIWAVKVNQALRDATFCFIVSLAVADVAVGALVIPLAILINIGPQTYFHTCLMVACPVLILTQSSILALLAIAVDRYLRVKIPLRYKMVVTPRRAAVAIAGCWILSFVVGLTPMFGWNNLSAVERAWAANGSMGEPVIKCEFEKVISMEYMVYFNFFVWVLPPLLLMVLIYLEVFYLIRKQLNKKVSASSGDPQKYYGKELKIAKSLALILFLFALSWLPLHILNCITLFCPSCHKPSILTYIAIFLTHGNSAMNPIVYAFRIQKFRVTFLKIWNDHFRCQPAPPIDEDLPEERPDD

[1] = biological target: T2, human adenosine A2a receptors (Homo sapiens, UniProt P29274); assay: Adenosine A2a receptor functional assay (cAMP-inducible beta-galactosidase reporter, antagonist mode vs NECA); details: CHO-K1 cells overexpressing human adenosine A2a receptors; 50 nM NECA; read-out: A2a cell-based functional Ki
T2 construct: expressed in transfected cells; host or cells: CHO-K1
Method: Ligand binding assay of adenosine A2a receptor was performed using plasma membrane of HEK293 cells containing human A2a adenosine receptor (PerkinElmer, RB-HA2a) and radioligand [3H] CGS21680 (PerkinElmer, NET1021). Assay was set up in 96-well polypropylene plate in total volume of 200, uL by sequentially adding 20 pL1:20 diluted membrane, pLassay buffer (50 mM Tris HCl, pH7.4 10 mM MgCl2, 1 mM EDTA) containing [3H] CGS2168O, 50, uL diluted compound (4×) or vehicle control in assay buffer. Nonspecific binding was determined by […] NECA. Reaction was carried out at room temperature for 2 hours before filtering through 96 well GF/C filter plate pre-soaked in 50 mM Tris HCl, pH7.4 containing 0.3% polyethylenimine. Plates were then washed 5 times with cold 50 mM Tris HCl, pH7.4, dried and sealed at the bottom. Microscintillation fluid 30, ul was added to each well and the top sealed. Plates were counted on Packard Topcount for [3H]. Data was analyzed in Microsoft Excel and GraphPad Prism programs. […] Plates were counted at 405 nm on Vmax Machine (Molecular Devices). Data was analyzed in Microsoft Excel and GraphPad Prism programs. […]

T2 sequence (P29274 whole entry): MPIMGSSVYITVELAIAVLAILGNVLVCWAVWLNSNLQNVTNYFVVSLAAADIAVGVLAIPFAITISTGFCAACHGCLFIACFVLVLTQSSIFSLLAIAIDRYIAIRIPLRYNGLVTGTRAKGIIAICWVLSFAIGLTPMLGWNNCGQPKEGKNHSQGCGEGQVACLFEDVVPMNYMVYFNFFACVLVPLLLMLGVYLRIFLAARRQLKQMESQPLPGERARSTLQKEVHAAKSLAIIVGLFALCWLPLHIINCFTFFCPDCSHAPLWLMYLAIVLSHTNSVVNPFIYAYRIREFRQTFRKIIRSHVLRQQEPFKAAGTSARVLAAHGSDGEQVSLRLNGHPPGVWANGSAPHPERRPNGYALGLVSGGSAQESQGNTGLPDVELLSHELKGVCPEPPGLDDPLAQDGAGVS

CN1CCN(C(=O)c2ccc3c(c2)-c2nc(N)nc(-c4ccccc4)c2C3=O)CC1 [Compound A, 2-Amino-8-(4-methyl-piperazine-1-carbonyl)-4-phenyl-indeno[1,2-d]pyrimidin-5-one]
Ki (A1): 58.4 nM | Ki [1]: 8.2 nM
